Measured values taken from the NIST ThermoML archive (doi:10.1016/j.jct.2015.03.015).
± gives the expanded uncertainty stated by the source.

Settings: Crystal, Transpiration method

| vapor or sublimation pressure (424 K) [kPa] | vapor or sublimation pressure (434.1 K) [kPa] | vapor or sublimation pressure (440 K) [kPa] | vapor or sublimation pressure (446 K) [kPa] | vapor or sublimation pressure (451.9 K) [kPa] | vapor or sublimation pressure (457.7 K) [kPa] | vapor or sublimation pressure (462.6 K) [kPa] | vapor or sublimation pressure (467.4 K) [kPa] | vapor or sublimation pressure (472.4 K) [kPa] | vapor or sublimation pressure (426.4 K) [kPa] | vapor or sublimation pressure (430.5 K) [kPa] | vapor or sublimation pressure (436.2 K) [kPa] | vapor or sublimation pressure (440.5 K) [kPa] | vapor or sublimation pressure (447.6 K) [kPa] | vapor or sublimation pressure (450.8 K) [kPa] | vapor or sublimation pressure (456.5 K) [kPa] | vapor or sublimation pressure (460.6 K) [kPa] | vapor or sublimation pressure (464.8 K) [kPa] | vapor or sublimation pressure (468.9 K) [kPa] | vapor or sublimation pressure (472.3 K) [kPa] | SMILES |
| --- | --- | --- | --- | --- | --- | --- | --- | --- | --- | --- | --- | --- | --- | --- | --- | --- | --- | --- | --- | --- |
| 0.00022 ± 2e-05 | 0.00051 ± 4e-05 | 0.00086 ± 7e-05 | 0.00135 ± 0.0001 | 0.00212 ± 0.00015 | 0.00317 ± 0.0002 | 0.0047 ± 0.0003 | 0.00673 ± 0.00046 | 0.00905 ± 0.0006 | – | – | – | – | – | – | – | – | – | – | – | O=c1cc[nH]c(=O)[nH]1 [2,4(1H,3H)-pyrimidinedione] |
| – | – | – | – | – | – | – | – | – | 0.00061 ± 5e-05 | 0.00086 ± 7e-05 | 0.00134 ± 0.0001 | 0.00183 ± 0.00012 | 0.00314 ± 0.0002 | 0.00397 ± 0.00025 | 0.00601 ± 0.00043 | 0.00813 ± 0.00056 | 0.01106 ± 0.00073 | 0.01464 ± 0.00095 | 0.01767 ± 0.0011 | Cc1c[nH]c(=O)[nH]c1=O [thymine] |
